Read-outs that look alike come from different tables or passages of the source.
Tests used:
[1] = target: full-length ATR (Homo sapiens (Human), UniProt Q13535); experiment: ATR Inhibition Assay (radioactive-phosphate incorporation); assay type: biochemical
Protocol: Compounds were screened for their ability to inhibit ATR kinase using a radioactive-phosphate incorporation assay. Assays were carried out in a mixture of 50 mM Tris/HCl (pH 7.5), 10 mM MgCl2 and 1 mM DTT. Final substrate concentrations were 10 μM [γ-33P]ATP (3 mCi 33P ATP/mmol ATP, Perkin Elmer) and 800 μM target peptide ([…]).
Assays were carried out at 25° C. in the presence of 5 nM full-length ATR. An assay stock buffer solution was prepared containing all of the reagents listed above, with the exception of ATP and the test compound of interest. 13.5 μL of the stock solution was placed in a 96 well plate followed by addition of 2 μL of DMSO stock containing serial dilutions of the test compound (typically starting from a final concentration of 15 μM with 3-fold serial dilutions) in duplicate (final DMSO concentration 7%). The plate was pre-incubated for 10 minutes at 25° C. and the reaction initiated by addition of 15 μL [γ-33P]ATP (final concentration 10 μM).
The reaction was stopped after 24 hours by the addition of 30 μL 0.1 M phosphoric acid containing 2 mM ATP. A multiscreen phosphocellulose filter 96-well plate (Millipore, Cat no. MAPHNOB50) was pretreated with 100 μL 0.2M phosphoric acid prior to the addition of 45 μL of the stopped assay mixture. The plate was washed with 5×200 μL 0.2M phosphoric acid. After drying, 100 μL Optiphase ‘SuperMix’ liquid scintillation cocktail (Perkin Elmer) was added to the well prior to scintillation counting (1450 Microbeta Liquid Scintillation Counter, Wallac).
After removing mean background values for all of the data points, Ki(app) data were calculated from non-linear regression analysis of the initial rate data using the Prism software package (GraphPad Prism version 3.0cx for Macintosh, GraphPad Software, San Diego Calif., USA).
Below is a chart showing the ATR Inhibition Ki values of compounds of the disclosure.

[2] = tested on: HCT116 colorectal cancer cells; experiment: Cisplatin Sensitization Assay (96h cell viability MTS); assay type: cell-based; conditions: concentration of compound required to reduce the IC50 of Cisplatin alone by at least 3-fold, 96h MTS
Protocol: Compounds can be screened for their ability to sensitize HCT116 colorectal cancer cells to Cisplatin using a 96h cell viability (MTS) assay. […] Compounds and Cisplatin are then both added simultaneously to the cell media in 2-fold serial dilutions from a top final concentration of 10 μM as a full matrix of concentrations in a final cell volume of 200 μl, and the cells are then incubated at 37° C. in 5% CO2. After 96h, 40 μl of […] (Promega G358a) is added to each well and the cells are incubated for 1 h at 37° C. in 5% CO2.

[3] = ATR Inhibition Ki(app), 10 μM ATP, 800 μM target peptide, 5 nM full-length ATR, 25° C.

Sequence of full-length ATR (Q13535 whole entry): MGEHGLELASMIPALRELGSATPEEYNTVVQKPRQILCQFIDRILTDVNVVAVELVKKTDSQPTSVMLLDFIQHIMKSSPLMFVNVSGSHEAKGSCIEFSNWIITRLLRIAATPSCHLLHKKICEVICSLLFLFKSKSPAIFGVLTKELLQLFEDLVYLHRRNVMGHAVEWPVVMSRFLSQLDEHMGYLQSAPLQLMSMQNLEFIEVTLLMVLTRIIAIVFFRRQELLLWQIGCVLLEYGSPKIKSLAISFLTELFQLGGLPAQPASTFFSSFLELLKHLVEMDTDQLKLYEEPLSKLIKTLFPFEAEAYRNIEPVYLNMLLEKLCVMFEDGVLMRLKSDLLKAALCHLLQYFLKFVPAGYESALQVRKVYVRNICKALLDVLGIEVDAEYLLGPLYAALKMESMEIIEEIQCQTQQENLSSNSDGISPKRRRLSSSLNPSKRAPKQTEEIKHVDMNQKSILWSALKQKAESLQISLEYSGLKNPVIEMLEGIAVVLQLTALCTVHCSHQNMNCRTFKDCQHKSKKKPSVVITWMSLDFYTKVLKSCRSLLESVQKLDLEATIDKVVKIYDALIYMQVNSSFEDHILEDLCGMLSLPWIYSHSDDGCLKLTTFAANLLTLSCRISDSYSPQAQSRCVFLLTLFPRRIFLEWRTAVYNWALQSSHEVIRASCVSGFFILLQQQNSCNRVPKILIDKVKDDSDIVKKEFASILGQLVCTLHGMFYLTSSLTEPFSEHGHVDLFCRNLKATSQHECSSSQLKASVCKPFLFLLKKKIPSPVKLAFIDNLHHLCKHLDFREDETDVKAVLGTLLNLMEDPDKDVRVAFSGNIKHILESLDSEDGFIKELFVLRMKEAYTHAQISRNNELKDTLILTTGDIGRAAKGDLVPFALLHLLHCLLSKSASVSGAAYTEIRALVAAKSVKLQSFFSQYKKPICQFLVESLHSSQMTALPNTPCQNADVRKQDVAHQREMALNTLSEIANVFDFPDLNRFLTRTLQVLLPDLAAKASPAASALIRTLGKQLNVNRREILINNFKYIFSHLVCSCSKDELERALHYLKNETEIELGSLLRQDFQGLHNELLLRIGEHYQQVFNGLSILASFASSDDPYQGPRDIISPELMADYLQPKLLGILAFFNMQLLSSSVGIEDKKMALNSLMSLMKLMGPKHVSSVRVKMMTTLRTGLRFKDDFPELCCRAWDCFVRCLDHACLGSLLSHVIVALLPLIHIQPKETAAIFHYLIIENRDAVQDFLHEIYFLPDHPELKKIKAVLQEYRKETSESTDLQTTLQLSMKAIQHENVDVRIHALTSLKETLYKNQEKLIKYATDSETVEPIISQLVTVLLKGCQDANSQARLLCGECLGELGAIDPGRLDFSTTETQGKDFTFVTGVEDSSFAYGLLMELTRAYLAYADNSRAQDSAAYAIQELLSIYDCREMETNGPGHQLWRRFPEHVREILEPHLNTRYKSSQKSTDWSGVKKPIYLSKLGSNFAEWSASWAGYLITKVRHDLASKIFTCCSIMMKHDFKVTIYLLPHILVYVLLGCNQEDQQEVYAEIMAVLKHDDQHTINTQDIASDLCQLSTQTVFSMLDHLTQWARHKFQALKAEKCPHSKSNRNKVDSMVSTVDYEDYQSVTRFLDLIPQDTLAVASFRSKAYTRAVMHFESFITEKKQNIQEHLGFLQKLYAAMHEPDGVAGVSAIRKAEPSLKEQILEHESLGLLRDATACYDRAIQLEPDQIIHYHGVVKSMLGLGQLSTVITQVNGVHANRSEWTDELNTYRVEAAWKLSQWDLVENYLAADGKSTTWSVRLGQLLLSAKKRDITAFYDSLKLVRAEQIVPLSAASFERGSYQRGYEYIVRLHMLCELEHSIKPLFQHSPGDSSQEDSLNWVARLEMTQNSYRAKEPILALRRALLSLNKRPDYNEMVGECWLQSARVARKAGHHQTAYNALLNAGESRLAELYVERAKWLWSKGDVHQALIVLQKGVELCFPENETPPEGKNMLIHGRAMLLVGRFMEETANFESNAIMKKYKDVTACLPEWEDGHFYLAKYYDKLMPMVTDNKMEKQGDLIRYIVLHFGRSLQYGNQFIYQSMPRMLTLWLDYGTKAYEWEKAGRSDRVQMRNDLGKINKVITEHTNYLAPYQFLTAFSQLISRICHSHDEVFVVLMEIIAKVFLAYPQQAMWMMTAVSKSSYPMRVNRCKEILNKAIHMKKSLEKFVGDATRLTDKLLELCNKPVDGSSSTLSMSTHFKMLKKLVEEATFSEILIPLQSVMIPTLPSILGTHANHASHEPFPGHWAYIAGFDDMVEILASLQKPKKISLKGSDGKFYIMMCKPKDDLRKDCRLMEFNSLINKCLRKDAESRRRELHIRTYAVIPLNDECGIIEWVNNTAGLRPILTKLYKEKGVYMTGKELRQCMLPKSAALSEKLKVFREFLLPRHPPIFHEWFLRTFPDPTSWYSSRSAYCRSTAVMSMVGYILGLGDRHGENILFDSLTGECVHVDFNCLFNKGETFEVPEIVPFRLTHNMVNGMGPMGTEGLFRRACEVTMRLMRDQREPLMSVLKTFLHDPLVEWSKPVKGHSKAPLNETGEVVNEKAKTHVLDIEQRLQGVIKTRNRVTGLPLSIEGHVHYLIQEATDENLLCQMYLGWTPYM

Ki [1, 3] [nM]	Ki [1] [nM]	SMILES	CP3 shift [2] [µM]
≤ 5	–	CC(C)n1cc(-c2cnc(N)c(-c3cc(-c4ccc(CNC5CC5)cc4)no3)n2)ccc1=O [Compound I-61]	0.078
≤ 5	–	CNCc1ccc(-c2cc(-c3nc(-c4ccc(=O)n(C(C)C(=O)N5CCCC5)c4)cnc3N)on2)cc1 (stereo not drawn) [Compound I-102]	0.078
≤ 5	–	CCCC(CC)c1cc(-c2cnc(N)c(-c3cc(-c4ccc(CNC5CC5)cc4)no3)n2)c[nH]c1=O (stereo not drawn) [Compound I-120]	0.078
≤ 5	–	CNCc1ccc(-c2cc(-c3nc(-c4c[nH]c(=O)c(Br)c4)cnc3N)on2)cc1 [Compound I-78]	0.625
≤ 5	–	CC(C)(C#N)n1cc(-c2cnc(N)c(-c3cc(-c4ccc(CNC5CCOC5)cc4)no3)n2)ccc1=O (stereo not drawn) [Compound I-145]	0.01
≤ 5	–	CCC(C)n1cc(-c2cnc(N)c(-c3cc(-c4ccc(CNC)cc4)no3)n2)ccc1=O (stereo not drawn) [Compound I-82]	0.079
≤ 5	–	CCC(CC)n1cc(-c2cnc(N)c(-c3cc(-c4ccc(CNC5CC(F)(F)C5)cc4)no3)n2)ccc1=O [Compound I-127]	0.312
≤ 5	–	Nc1ncc(-c2c[nH]c(=O)c(C3CCCC3)c2)nc1-c1cc(-c2ccc(CNC3CC3)cc2)no1 [Compound I-119]	0.156
≤ 5	–	CNCc1ccc(-c2cc(-c3nc(-c4ccc(=O)n(C(C)C)c4)cnc3N)on2)cc1 [Compound I-11]	0.156
≤ 5	–	CCC(Cn1cc(-c2cnc(N)c(-c3cc(-c4ccc(CNC)cc4)no3)n2)ccc1=O)OC (stereo not drawn) [Compound I-74]	0.078
≤ 5	–	CNCc1ccc(-c2cc(-c3nc(-c4c[nH]c(=O)c(C5CCCCC5)c4)cnc3N)on2)cc1 [Compound I-115]	–
5 to 50	–	CNCc1ccc(-c2cc(-c3nc(-c4cc(F)c(=O)n(C(C)C)c4)cnc3N)on2)cc1 [Compound I-121]	–
≤ 5	–	CNCc1ccc(-c2cc(-c3nc(-c4ccc(=O)n(CC5CCCO5)c4)cnc3N)on2)cc1 (stereo not drawn) [Compound I-86]	–
5 to 50	–	CNCc1ccc(-c2cc(-c3nc(-c4cc(Br)c(=O)n(C(C)C)c4)cnc3N)on2)cc1 [Compound I-71]	–
≤ 5	–	CC(N)c1cccc(-c2cc(-c3nc(-c4ccc(=O)[nH]c4)cnc3N)on2)c1 (stereo not drawn) [Compound I-103]	–
≤ 5	–	Nc1ncc(-c2c[nH]c(=O)c(Cl)c2)nc1-c1cc(-c2ccc(CNC3CC3)cc2)no1 [Compound I-112]	–
50 to 100	–	C=Cc1cc(-c2cnc(N)c(-c3cc(-c4ccc(CNC)cc4)no3)n2)cn(C(C)C)c1=O [Compound I-67]	–
≤ 5	–	CNCc1ccc(-c2cc(-c3nc(-c4ccc(=O)n(Cc5nccs5)c4)cnc3N)on2)cc1 [Compound I-84]	–
≤ 5	–	CNCc1ccc(-c2cc(-c3nc(-c4ccc(=O)n(C(C)C5CC5)c4)cnc3N)on2)cc1 (stereo not drawn) [Compound I-79]	–
≤ 5	–	CNCc1ccc(-c2cc(-c3nc(-c4c[nH]c(=O)c(C5=CCCCC5)c4)cnc3N)on2)cc1 [Compound I-114]	–
≤ 5	–	CNCc1ccc(-c2cc(-c3nc(-c4ccc(=O)n(C(CO)CO)c4)cnc3N)on2)cc1 [Compound I-117]	–
≤ 5	–	CCC(CC)n1cc(-c2cnc(N)c(-c3cc(-c4cccc(C(C)(C)N)c4)no3)n2)ccc1=O [Compound I-146]	–
≤ 5	–	CC(CO)NCc1ccc(-c2cc(-c3nc(-c4ccc(=O)n(C(C)(C)C#N)c4)cnc3N)on2)cc1 (stereo not drawn) [Compound I-147]	–

The remaining lines, values behind:

SMILES	Ki [1, 3] [nM]	Ki [1] [nM]	CP3 shift [2] [µM]
CC(N)c1cccc(-c2cc(-c3nc(-c4ccc(=O)n(CC5CC5C)c4)cnc3N)on2)c1 (stereo not drawn) [Compound I-106]	≤ 5	–	0.039
CNCc1ccc(-c2nnc(-c3nc(-c4ccc(=O)n(C5CCCC5)c4)cnc3N)o2)c(OC)c1 [Compound I-32]	≤ 5	–	0.079
CNCc1ccc(-c2nnc(-c3nc(-c4ccc(=O)n(C(C)C)c4)cnc3N)o2)cc1 [Compound I-3]	5 to 50	–	0.234
CNCc1ccc(-c2nnc(-c3nc(-c4ccc(=O)n(C(C)C)c4)cnc3N)o2)c(OC)c1 [Compound I-6]	≤ 5	–	0.156
CCC(C#N)(CC)n1cc(-c2cnc(N)c(-c3cc(-c4ccc(CNC5CC5)cc4F)no3)n2)ccc1=O [Compound I-135]	–	–	0.01
CCC(CC)n1cc(-c2cnc(N)c(-c3cc(-c4cccc(C(N)CF)c4)no3)n2)ccc1=O (stereo not drawn) [Compound I-131]	≤ 5	–	0.02
CC(N)c1cccc(-c2nnc(-c3nc(-c4ccc(=O)n(C(C)C)c4)cnc3N)o2)c1 (stereo not drawn) [Compound I-42]	≤ 5	–	0.156
CC(N)c1cccc(-c2cc(-c3nc(-c4ccc(=O)n(C(C)C)c4)cnc3N)on2)c1 (stereo not drawn) [Compound I-55]	≤ 5	–	0.039
CC(N)c1cccc(-c2cc(-c3nc(-c4ccc(=O)n(CC5(C)CC5)c4)cnc3N)on2)c1 (stereo not drawn) [Compound I-105]	≤ 5	–	0.02
CCC(CC)n1cc(-c2cnc(N)c(-c3cc(-c4ccc(CNCCF)cc4)no3)n2)ccc1=O [Compound I-126]	≤ 5	–	0.625
CNCc1ccc(-c2cc(-c3nc(-c4ccc(=O)n(C(C)C)c4)cnc3N)on2)c(OC)c1 [Compound I-64]	≤ 5	–	0.078
CC(C)n1cc(-c2cnc(N)c(-c3cc(-c4ccc(CN[C@H]5CCOC5)cc4)no3)n2)ccc1=O [Compound I-58]	–	–	0.312
CNCc1ccc(-c2nnc(-c3nc(-c4ccc(=O)n(CCOC)c4)cnc3N)o2)cc1 [Compound I-2]	–	5 to 50	–
CCC(C)n1cc(-c2cnc(N)c(-c3nnc(-c4ccc(CNC)cc4OC)o3)n2)ccc1=O (stereo not drawn) [Compound I-25]	≤ 5	–	–
CNCc1cccc(-c2nnc(-c3nc(-c4ccc(=O)n(C(C)C)c4)cnc3N)o2)c1 [Compound I-47, 5-[5-amino-6-[5-[3-(methylaminomethyl)phenyl]-1,3,4-oxadiazol-2-yl]pyrazin-2-yl]-1-isopropyl-pyridin-2-one]	–	5 to 50	–
CNCc1ccc(-c2nnc(-c3nc(-c4ccc(=O)n(C5CCC5)c4)cnc3N)o2)c(C)c1 [Compound I-33]	≤ 5	–	–
CNCc1ccc(-c2nnc(-c3nc(-c4ccc(=O)n(C(C)C#N)c4)cnc3N)o2)c(OC)c1 (stereo not drawn) [Compound I-34, 2-[5-[5-amino-6-[5-[2-methoxy-4-(methylaminomethyl)phenyl]-1,3,4-oxadiazol-2-yl]pyrazin-2-yl]-2-oxo-1-pyridyl]propanenitrile]	≤ 5	–	–
CNCc1ccc(-c2nnc(-c3nc(-c4ccc(=O)n(C(C)C(F)(F)F)c4)cnc3N)o2)c(OC)c1 (stereo not drawn) [Compound I-41]	≤ 5	–	–
CNCc1ccc(-c2nnc(-c3nc(-c4ccc(=O)n(CC(F)(F)F)c4)cnc3N)o2)c(C)c1 [Compound I-27]	≤ 5	–	–
Cc1cc(CNC(C)C)ccc1-c1nnc(-c2nc(-c3ccc(=O)n(C(C)C)c3)cnc2N)o1 [Compound I-20]	≤ 5	–	–
CNCc1ccc(-c2nnc(-c3nc(-c4ccc(=O)n(C(C)C)c4C#N)cnc3N)o2)cc1 [Compound I-149]	5 to 50	–	–
CNCc1ccc(-c2nnc(-c3nc(-c4ccc(=O)n(C(C)C)c4C#N)cnc3N)o2)c(C)c1 [Compound I-151]	5 to 50	–	–
CC(N)c1ccc(-c2nnc(-c3nc(-c4ccc(=O)n(C(C)C)c4)cnc3N)o2)cc1 (stereo not drawn) [Compound I-45]	5 to 50	–	–

— US9630956B2, “Compounds useful as inhibitors of ATR kinase” (Vertex Pharmaceuticals Incorporated, priority 2010, dated 2017)
